The target in experiment [1] is T1, p53 (Homo sapiens, UniProt P04637).
T1 construct: purchased R&D systems
The experiment in a line: Surface plasmon resonance (Biacore) binding to p53. To be noted: SPR, recombinant p53 amine linked to Biacore chip, compound 1 to 25 μM. The text has this:
Free reactive amines were then blocked with ethanolamine.
A general note: SPR reads the build-up and loss of mass on a sensor chip optically.

In experiment [2] the target is T2, p53 (Homo sapiens, UniProt P04637, R273C).
T2 construct: endogenous in cells; host or cells: C33a
The experiment in a line: p53 nuclear localization by immunofluorescence. Format: cell-based. To be noted: C33a cells, 30 μM, 8 hrs. Here is the method:
C33a cells were plated into chamber slides and treated with 30 μM of compounds 3 or, 4 for 4, or 8 hours. As a control, 30 μM cisplatin was used. The cells were fixed with 2.5% formaldehyde for 30 minutes, followed by permeabilization with 0.01% Triton X100 for 30 minutes. Cells were blocked with 5% goat serum for 30 minutes and stained overnight with anti-p53 (Santa Cruz, antibody FL-303) or anti-phospho-H2A.X (cell signaling) in 1% FCS in PBS at 4°. The following day, the cells were washed with PBS and incubated for 45 minutes with anti-rabbit-FITC and DAPI in 1% FCS in PBS. The cells were washed and mounted with ProLong Gold.

Experiment [3] addresses T2, p53. The experiment in a line: Nuclear/cytoplasmic fractionation and Western analysis of p53. It counts as cell-based. To be noted: C33a cells, 6 hrs, Western. As for the experimental part: For nuclear/cytoplasmic fractionation, 1 × 10^7 C33a cells were treated with 30 μM compound for 6 hrs. The cells were washed with PBS and lysed in 1000 μL of cytoplasmic extraction buffer (10 mM KCl, 10 mM HEPES, pH 7.9, 0.1 mM EDTA, 1 mM dithiothreitol) and incubated on ice for 20 min. 50 μL of 10% NP-40 was added to each lysate, vortexed and then centrifuged at 12,000 × g for 10 min. The cytosolic fraction was collected and the pellet containing the nuclei suspended in 50 μL of nuclear extraction buffer (0.4 M NaCl, 20 mM HEPES, pH 7.9, 1 mM EDTA). The nuclear fraction was incubated for 30 min on ice. The samples were spun at 14,000 × g for 10 min and the supernatants were collected. To concentrate the cytoplasmic fraction, 500 μL methanol, and 200 μL chloroform were added and the samples were vortexed, centrifuged for 10 min at 14,000 × g, and the upper and lower layer were discarded. The solid interphase was collected and suspended in 50 μL of lysis buffer. Equal cell equivalents were loaded on a gel and electrophoresed. For whole cell lysates, C33a cells were lysed with a modified RIPA buffer and subjected to SDS-PAGE electrophoresis. The gels were transferred to nitrocellulose and blots probed with antibodies for p53 (Santa Cruz, antibody FL-303), lamin A/C, and calnexin (Santa Cruz Biotechnology).

In another experiment the test system is PUMA. The experiment in a line: PUMA transcription by qRT-PCR. To be noted: 30 μM, 8h. It counts as cell-based. The source says:
(§1) RNA from C33a and HeLa was isolated by Trizol and reverse transcribed using the first strand synthesis kit from NEB. Primers for p53, GAPDH and PUMA were used for quantitative real-time PCR (qRT-PCR). Primer sequences include: PUMA (forward primer: CTCAACGCACAGTACGAG and reverse primer: […]), FAS (forward primer: TCTGCCATAAGCCCTGT and reverse primer: GTCTGTGTACTCCTTCCCT), p21 (forward primer: […] and reverse primer: […]), and BAX (forward primer: […] and reverse primer: […]). ΔΔCt values were determined for PUMA using GAPDH to normalize data. Bio-rad SYBR green was used for the amplification and detection of the PCR products on an iCycler (Bio-rad).
A general note: In qPCR the cycle at which signal appears reflects the starting amount.

A further experiment concerns p21, BAX and FAS. The experiment in a line: p53 target gene expression (p21, BAX, FAS) by qRT-PCR. Format: cell-based. As to conditions: HeLa cells, 8h.
Source text: as §1

Another experiment has as its system PUMA promoter. The experiment in a line: ChIP-qPCR of p53 binding to the PUMA promoter. As to conditions: 8 hrs. It counts as cell-based. As for the experimental part:
Cells treated with the indicated compounds for 8 hrs, harvested and ChIP was carried using a Chromatin Immunoprecipitation Assay Kit (EMD Millipore). p53-DNA complexes were immunoprecipitated using a mouse monoclonal DO-1 antibody (Santa Cruz) and incubated overnight at 4°C. qPCR amplifications was performed using the primer sequences Puma forward 5’- […], reverse 5’- […].

The test system of the next experiment is HeLa cells. The experiment in a line: Cell viability (Cell Titer Glo), HeLa. It counts as cell-based. Here is the method:
(§2) For the viability assays, 20,000 C33a, HeLa, or siHA cells were plated in white 96 well flat bottom plates. The cells were treated with compounds at concentrations from 0.5 to 30 μM for 48 hrs. After incubation, Cell Titer Glo (Promega) was added to the cells and luminescence read in a Tecan II plate reader. For annexin V and PI staining, 500,000 C33a cells were treated with inhibitor for 24 hrs. The cells were stained with Annexin V-FITC and PI according to eBioscience manufacturer’s instructions and analyzed by flow cytometry.
A general note: ATP-based viability assays read luminescence as a measure of living cells.

Experiment [4] relates to C33a cells. The experiment in a line: Cell viability (Cell Titer Glo), C33a. It counts as cell-based. Here is the method: as §2
The next experiment has as its system HCT116 cells. The experiment in a line: Cell viability, HCT116 (wtHCT116 and p53-null mutHCT116). It counts as cell-based.
The test system of a further experiment is SQ20B cells. The experiment in a line: Cell viability, SQ20B. Format: cell-based. To be noted: mutant p53.
Experiment [5] concerns C33a cells. The experiment in a line: Cell viability after p53 siRNA knockdown. It counts as cell-based. As to conditions: p53 siRNA vs scrambled, 10 μM, 48 hrs. As for the experimental part: C33a cells were transfected with 100 pmol siRNA for p53 (Dharmacon, L-003329-00-0005) or AllStar control (Qiagen) using lipofectamine2000 according to manufacturer’s instructions. The cells were incubated for 24 hrs and then split and incubated with 10 μM compounds. Cell viability was measured after 48 hours by Cell Titer Glo. Efficiency of knockdown was determined by quantitative RT-PCR using SYBR green.

The subject of experiment [6] is proteasome trypsin-like activity. The experiment in a line: Proteasome-Glo trypsin-like activity. It counts as cell-based. As to conditions: C33a cells, 2 hrs, 10 μM or 30 μM.
The next experiment relates to p53-Luc. The experiment in a line: In vitro E6 degradation assay (recombinant E6 with p53-Luc lysates). As to conditions: 50 ng recombinant E6, 10 μM compound, C33a lysates, 6 hours. It counts as biochemical. Here is the method: For the in vitro assay, E6 was cloned into the pMAL vector in frame with the maltose binding protein. The E6 was expressed in bacteria and purified on amylose column. C33a cells were transfected with p53-Luc and incubated overnight. 50 ng recombinant E6 was incubated with 10 μM compound and C33a lysates for 6 hours at 30 degrees. We measured luciferase activity after 30 minutes. For the trypsin and chymotrypsin assay, C33a cells were incubated for 2 hours with the indicated compounds at 10 μM and assessed for chymotrypsin and trypsin activity using Proteasome-Glo assay (Promega). For the in vivo degradation assay, C33a cells expressing Ad-TE6 and Ad-p53 or expressing Ad-TE7 and Ad-Rb-Ren were treated for 8 hours with compounds. After incubation, cells were lysed and luciferase activity measured and p53 levels measured by Western blot.

Consider one compound from publication PMC4849654, “A High-Throughput Cell-Based Screen Identified a 2-[(E)-2-Phenylvinyl]-8-Quinolinol Core Structure That Activates p53” (PLoS ONE, 2016).

The Kd is the free concentration of one partner at which half of the binding sites on the other are occupied at equilibrium, for simple one-to-one binding. The term IC50 denotes the concentration that inhibits the measured activity by half. A low value points to higher potency. With `COc1ccc(/C=C/c2ccc3cccc(O)c3n2)cc1OC` [compound 4], at p53 [1], the Kd was 200 ± 52 nM. On p53 [2], the “p53 nuclear accumulation, % of cell nuclei” value is listed as 79.5±12.7 % of cell nuclei. Also, the “nuclear accumulation of p53 in nuclear fraction compared to vehicle” value at p53 [3] is “higher levels of nuclear accumulation of p53”. Further, the PUMA transcription upregulation in the experiment on PUMA (C33a cells) was found to be 2.76±0.29 fold; with PUMA (HeLa cells), 2.04±0.85 fold. Besides, in the experiment on p21, BAX and FAS, the “expression of p21, BAX and FAS” value was “induced expression”. The results for the “p53 binding to the PUMA promoter compared to controls” value with PUMA promoter (C33a cells) and in the experiment with PUMA promoter (HeLa cells) were 38.9±2.4 fold and 31.3±8.7 fold, respectively. For the same compound, the “cell viability (Fig 5D)” value is on record as “decreased viability” with HeLa cells (HeLa); “decreased viability” in the experiment with C33a cells [4] (C33a, mutant p53); “decreased viability” in the experiment on HCT116 cells (HCT116, wild type p53); “decreased viability” with SQ20B cells. The IC50 in the experiment on HeLa cells (HeLa cells, 48 hrs, Cell Titer Glo) stood at 4.5 µM; with C33a cells [4] (C33a cells, 48 hrs, Cell Titer Glo), 2300 nM. Moreover, the “cell viability at 30 μM” value is “decreased viability” with HeLa cells (HeLa, 30 μM, 48h) and “decreased viability” with C33a cells [4] (C33a, 30 μM, 48h). In addition, the “viability of mutHCT116 cells relative to wtHCT116 cells” value in the experiment on HCT116 cells (10 μM, percent viability mutHCT116 divided by wtHCT116) was determined as 2.5±0.5 fold. In the experiment on C33a cells [5], the “effect of p53 gene knockdown on C33a sensitivity to compound” value is reported as “significantly reversed”. Moreover, the trypsin-like proteasome activity result in experiment [6] was “did not significantly reduce”. Besides, the “restoration of p53 levels in vitro” value in the experiment with p53-Luc is “restored p53 levels in vitro to similar levels as the proteasome inhibitor MG132”.
